Results on eleven molecules are retold here after ChEMBL document CHEMBL4340524, “Design and synthesis of a novel 1H-pyrrolo[3,2-b]pyridine-3-carboxamide derivative as an orally available ACC1 inhibitor” (Bioorg Med Chem, 2019).

In brackets after ≈: the same amount, converted by molar mass. Activity calls are given as the source filed them. The calls are words filed in the database; no cut-off is given here.

In series [1] the target is T1, Acetyl-CoA carboxylase 1 (Homo sapiens, UniProt Q13085). Put plainly: Inhibition of recombinant human ACC1 expressed in Sf9 cells at 10 uM using acetyl Co-A as substrate preincubated for 60 mins followed by substrate addition and measured after 30 mins by RapidFire-Mass spectrometry relative to control.
The target in series [2] is T2, Acetyl-CoA carboxylase 2 (Homo sapiens, UniProt O00763). As to the kind of experiment: Inhibition of recombinant human ACC2 expressed in Sf9 cells at 10 uM using acetyl Co-A as substrate preincubated for 60 mins followed by substrate addition and measured after 30 mins by RapidFire-Mass spectrometry relative to control.
Target sequence in this assay (O00763 whole entry, looked up): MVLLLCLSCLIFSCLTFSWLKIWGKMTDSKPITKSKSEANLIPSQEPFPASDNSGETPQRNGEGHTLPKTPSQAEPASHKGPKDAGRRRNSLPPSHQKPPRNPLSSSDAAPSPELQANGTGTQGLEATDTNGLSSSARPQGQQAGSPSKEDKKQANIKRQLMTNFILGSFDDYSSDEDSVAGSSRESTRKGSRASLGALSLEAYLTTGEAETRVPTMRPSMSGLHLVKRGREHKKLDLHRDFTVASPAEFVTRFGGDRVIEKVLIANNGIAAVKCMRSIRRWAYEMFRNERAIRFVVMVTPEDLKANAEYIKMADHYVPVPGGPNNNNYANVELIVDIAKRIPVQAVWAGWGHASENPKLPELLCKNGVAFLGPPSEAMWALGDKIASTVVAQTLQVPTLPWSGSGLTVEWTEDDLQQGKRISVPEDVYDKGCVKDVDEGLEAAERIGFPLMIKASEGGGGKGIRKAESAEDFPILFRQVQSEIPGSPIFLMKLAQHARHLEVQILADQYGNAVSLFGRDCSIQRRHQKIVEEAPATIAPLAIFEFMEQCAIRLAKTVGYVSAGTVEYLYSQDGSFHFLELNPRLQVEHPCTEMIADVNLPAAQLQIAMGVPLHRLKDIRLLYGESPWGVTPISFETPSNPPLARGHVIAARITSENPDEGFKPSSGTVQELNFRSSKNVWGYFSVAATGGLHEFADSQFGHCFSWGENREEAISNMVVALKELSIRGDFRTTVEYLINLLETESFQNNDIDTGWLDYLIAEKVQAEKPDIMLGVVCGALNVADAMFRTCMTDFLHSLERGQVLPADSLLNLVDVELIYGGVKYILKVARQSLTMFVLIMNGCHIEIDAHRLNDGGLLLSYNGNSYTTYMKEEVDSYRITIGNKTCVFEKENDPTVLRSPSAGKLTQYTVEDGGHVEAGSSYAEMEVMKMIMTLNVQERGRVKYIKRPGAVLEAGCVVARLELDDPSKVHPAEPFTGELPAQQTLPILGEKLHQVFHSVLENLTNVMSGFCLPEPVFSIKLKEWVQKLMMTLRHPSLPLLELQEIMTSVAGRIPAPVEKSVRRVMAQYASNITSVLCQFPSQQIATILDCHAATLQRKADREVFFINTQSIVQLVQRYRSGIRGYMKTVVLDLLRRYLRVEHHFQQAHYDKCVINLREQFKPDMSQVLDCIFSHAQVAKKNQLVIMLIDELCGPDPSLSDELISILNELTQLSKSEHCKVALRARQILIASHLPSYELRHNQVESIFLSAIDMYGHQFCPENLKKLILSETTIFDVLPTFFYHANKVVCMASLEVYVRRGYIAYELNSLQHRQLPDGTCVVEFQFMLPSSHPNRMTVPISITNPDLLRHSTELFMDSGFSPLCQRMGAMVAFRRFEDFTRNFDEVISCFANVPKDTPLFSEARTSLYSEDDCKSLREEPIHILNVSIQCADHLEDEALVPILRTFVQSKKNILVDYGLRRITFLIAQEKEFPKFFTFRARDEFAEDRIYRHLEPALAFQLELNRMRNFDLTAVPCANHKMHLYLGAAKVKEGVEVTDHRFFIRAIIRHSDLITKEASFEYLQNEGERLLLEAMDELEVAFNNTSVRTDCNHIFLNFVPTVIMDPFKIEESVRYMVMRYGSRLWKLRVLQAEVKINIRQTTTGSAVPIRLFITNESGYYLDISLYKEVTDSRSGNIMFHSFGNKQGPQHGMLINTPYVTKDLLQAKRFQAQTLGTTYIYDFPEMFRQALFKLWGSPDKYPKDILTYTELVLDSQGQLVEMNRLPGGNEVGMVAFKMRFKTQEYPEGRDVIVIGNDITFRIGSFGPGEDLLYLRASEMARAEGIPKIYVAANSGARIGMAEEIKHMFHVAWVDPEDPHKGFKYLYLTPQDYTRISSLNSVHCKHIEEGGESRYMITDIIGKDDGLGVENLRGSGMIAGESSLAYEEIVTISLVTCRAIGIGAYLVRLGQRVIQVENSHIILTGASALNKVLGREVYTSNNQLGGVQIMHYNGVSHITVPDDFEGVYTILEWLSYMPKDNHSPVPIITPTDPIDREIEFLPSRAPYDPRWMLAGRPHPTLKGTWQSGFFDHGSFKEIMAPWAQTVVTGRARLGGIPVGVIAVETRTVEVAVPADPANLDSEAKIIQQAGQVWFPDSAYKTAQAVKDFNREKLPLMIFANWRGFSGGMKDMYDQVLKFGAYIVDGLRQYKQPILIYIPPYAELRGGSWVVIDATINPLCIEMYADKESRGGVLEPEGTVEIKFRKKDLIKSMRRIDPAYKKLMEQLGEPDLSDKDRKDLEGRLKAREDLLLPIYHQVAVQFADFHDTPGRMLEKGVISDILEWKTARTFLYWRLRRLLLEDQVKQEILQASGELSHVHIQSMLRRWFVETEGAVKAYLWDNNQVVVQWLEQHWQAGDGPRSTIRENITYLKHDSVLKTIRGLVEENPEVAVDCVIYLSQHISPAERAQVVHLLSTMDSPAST
A short description of series [3]: Solubility of the compound in pH 6.8 aqueous buffer by HPLC analysis. In kind it is physicochemical.
The target of series [4] is T1, Acetyl-CoA carboxylase 1. Put plainly: Inhibition of ACC1 in human HCT116 cells assessed as reduction in [14C]acetate uptake preincubated for 60 mins followed by [14C]acetate addition and measured after 2 hrs by top count scintillation counting method. The format is cell-based.
Series [5] has as its target T2, Acetyl-CoA carboxylase 2. Put plainly: Inhibition of recombinant human ACC2 expressed in Sf9 cells using acetyl Co-A as substrate preincubated for 60 mins followed by substrate addition and measured after 30 mins by RapidFire-Mass spectrometry.
Target sequence in this assay (O00763 whole entry): as the sequence (O00763 whole entry, looked up) above
Series [6] addresses T1, Acetyl-CoA carboxylase 1. Put plainly: Inhibition of recombinant human ACC1 expressed in Sf9 cells using acetyl Co-A as substrate preincubated for 60 mins followed by substrate addition and measured after 30 mins by RapidFire-Mass spectrometry.
Series [7] in a line: Oral bioavailability in ICR mouse at 1 mg/kg administered as cassette dose by LC-MS/MS analysis. The settings on record: in vivo. The format is ADME, organism-based.
The nature of series [8]: AUC (0 to 8 hrs) in ICR mouse at 0.1 mg/kg, iv or 1 mg/kg, po administered as cassette dose by LC-MS/MS analysis. As to conditions: in vivo. The format is ADME, organism-based.
For the next series, the species on record is Homo sapiens. As to the kind of experiment: Selectivity ratio of IC50 for recombinant human ACC2 expressed in Sf9 cells to IC50 for recombinant human ACC1 expressed in Sf9 cells.
Another series concerns Mus musculus. Put plainly: In vivo inhibition of ACC1 in BALB/cA Jc1-nu/nu mouse xenografted with human HCT116 cells assessed as suppression of malonyl-CoA synthesis at 100 mg/kg, po administered as single dose measured after 16 hrs by RPLC-MS/MS analysis. In kind it is functional, organism-based.

In the case of `O=C(Nc1ccc2[nH]ncc2c1)c1c[nH]c2cc(-c3ccccc3)cnc12`, the inhibition was 45% on Acetyl-CoA carboxylase 1 [1] and 4% on Acetyl-CoA carboxylase 2 [2].
In the case of `Cn1cc(C(=O)Nc2ccc3c(cnn3C)c2)c2ncc(-c3ccccc3)cc21`, at Acetyl-CoA carboxylase 1 [1], the inhibition stood at 26%.
As to `O=C(Nc1ccc2[nH]ncc2c1)c1c[nH]c2cc(-c3ccccc3)ccc12`, the inhibition at Acetyl-CoA carboxylase 1 [1] is -7%; at Acetyl-CoA carboxylase 2 [2], -8%.
For `CC(C)n1cc(C(=O)Nc2ccc3[nH]ncc3c2)c2ncc(-c3ccccc3)cc21`, in [3], the solubility was 3200 µg/mL (≈ 8090 µM). Besides, the IC50 is above 1000 nM at Acetyl-CoA carboxylase 1 [4], 6400 nM on Acetyl-CoA carboxylase 2 [5] and 1600 nM on Acetyl-CoA carboxylase 1 [6]. In addition, the bioavailability in series [7] was determined as 59.8%. Also, the AUC(0-t) in [8] came out at 1700 ng·h/mL.
With `Cn1cc(C(=O)Nc2ccc3[nH]ncc3c2)c2ncc(-c3ccccc3)cc21`, the solubility in series [3] came out at 60 µg/mL (≈ 163 µM). Further, the inhibition at Acetyl-CoA carboxylase 1 [1] came to 99%; on Acetyl-CoA carboxylase 2 [2], 83%. The concentration for half-maximal inhibition (IC50) on Acetyl-CoA carboxylase 1 [4] stood at 430 nM; on Acetyl-CoA carboxylase 2 [5], 4000 nM; at Acetyl-CoA carboxylase 1 [6], 820 nM. Also, the Ratio IC50 in the series listed under Homo sapiens worked out at 5. Besides, the bioavailability in [7] is 39.3%. For the same molecule, the AUC(0-t) in [8] came to 189 ng·h/mL.
For `CCn1cc(C(=O)Nc2ccc3[nH]ncc3c2)c2ncc(-c3ccccc3)cc21`, the solubility in [3] was below 60 µg/mL. Besides, the IC50 at Acetyl-CoA carboxylase 1 [4] is 130 nM; at Acetyl-CoA carboxylase 2 [5] it was 3700 nM; at Acetyl-CoA carboxylase 1 [6], 1000 nM. This molecule yielded a bioavailability in [7] of 57.7%. In series [8], this molecule registered an exposure AUC(0-t) of 653 ng·h/mL.
For `Cn1cc(C(=O)Nc2ccc3[nH]ccc3c2)c2ncc(-c3ccccc3)cc21`, the inhibition at Acetyl-CoA carboxylase 1 [1] was found to be 69%.
With `Cn1cc(C(=O)Nc2ccc3[nH]cnc3c2)c2ncc(-c3ccccc3)cc21`, the figures for the inhibition at Acetyl-CoA carboxylase 1 [1] and at Acetyl-CoA carboxylase 2 [2] were 51% and 31%, respectively.
As to `CN(C(=O)c1cn(C)c2cc(-c3ccccc3)cnc12)c1ccc2[nH]ncc2c1`, the results for the inhibition at Acetyl-CoA carboxylase 1 [1] and at Acetyl-CoA carboxylase 2 [2] were 7% and 6%, respectively.
For `CC(C)n1cc(C(=O)Nc2cc3cn[nH]c3cc2F)c2ncc(-c3ccc(N)cc3)cc21`, the values for the IC50 on Acetyl-CoA carboxylase 1 [4], on Acetyl-CoA carboxylase 2 [5] and on Acetyl-CoA carboxylase 1 [6] were 150 nM, 2000 nM and 170 nM, respectively. In addition, the bioavailability in series [7] is 63.2%. For the same molecule, in series [8], the AUC(0-t) was determined as 647 ng·h/mL. Also, the inhibition entry in the series with Mus musculus was “Active”.
`CC(C)n1cc(C(=O)Nc2ccc3[nH]ncc3c2)c2ncc(-c3ccc(N)cc3)cc21`: the IC50 at Acetyl-CoA carboxylase 1 [4] amounted to 490 nM; on Acetyl-CoA carboxylase 2 [5], 2200 nM; at Acetyl-CoA carboxylase 1 [6], 210 nM.

As usually defined, the inhibition is the relative decrease from the control value, in per cent. Usually solubility stands for how much of the substance goes into solution per volume. What is called IC50 is the point on the concentration scale where inhibition reaches its midpoint. The term bioavailability denotes the share of a dose that reaches the circulation, judged against a reference dose that is usually intravenous. Higher therefore signals good availability. In general, AUC(0-t) refers to exposure summed from dosing to a finite time, without extrapolation to infinity. Low values mean low exposure, high ones high exposure.
